Results on 7 compounds are retold here after ChEMBL document CHEMBL5550172 (Eur J Med Chem, 2024).

One assay concerns the target Histone deacetylase 1 (Homo sapiens, UniProt Q13547). The assay is described as follows: Inhibition of recombinant human HDAC1 using Ac-Val-Gly-(NAc)Lys-AMC as substrate incubated for 30 mins by fluorescence based assay.
The target in assay [1] is T1, Protein deacetylase HDAC6 (Homo sapiens, UniProt Q9UBN7).
T1 sequence (Q9UBN7 whole entry): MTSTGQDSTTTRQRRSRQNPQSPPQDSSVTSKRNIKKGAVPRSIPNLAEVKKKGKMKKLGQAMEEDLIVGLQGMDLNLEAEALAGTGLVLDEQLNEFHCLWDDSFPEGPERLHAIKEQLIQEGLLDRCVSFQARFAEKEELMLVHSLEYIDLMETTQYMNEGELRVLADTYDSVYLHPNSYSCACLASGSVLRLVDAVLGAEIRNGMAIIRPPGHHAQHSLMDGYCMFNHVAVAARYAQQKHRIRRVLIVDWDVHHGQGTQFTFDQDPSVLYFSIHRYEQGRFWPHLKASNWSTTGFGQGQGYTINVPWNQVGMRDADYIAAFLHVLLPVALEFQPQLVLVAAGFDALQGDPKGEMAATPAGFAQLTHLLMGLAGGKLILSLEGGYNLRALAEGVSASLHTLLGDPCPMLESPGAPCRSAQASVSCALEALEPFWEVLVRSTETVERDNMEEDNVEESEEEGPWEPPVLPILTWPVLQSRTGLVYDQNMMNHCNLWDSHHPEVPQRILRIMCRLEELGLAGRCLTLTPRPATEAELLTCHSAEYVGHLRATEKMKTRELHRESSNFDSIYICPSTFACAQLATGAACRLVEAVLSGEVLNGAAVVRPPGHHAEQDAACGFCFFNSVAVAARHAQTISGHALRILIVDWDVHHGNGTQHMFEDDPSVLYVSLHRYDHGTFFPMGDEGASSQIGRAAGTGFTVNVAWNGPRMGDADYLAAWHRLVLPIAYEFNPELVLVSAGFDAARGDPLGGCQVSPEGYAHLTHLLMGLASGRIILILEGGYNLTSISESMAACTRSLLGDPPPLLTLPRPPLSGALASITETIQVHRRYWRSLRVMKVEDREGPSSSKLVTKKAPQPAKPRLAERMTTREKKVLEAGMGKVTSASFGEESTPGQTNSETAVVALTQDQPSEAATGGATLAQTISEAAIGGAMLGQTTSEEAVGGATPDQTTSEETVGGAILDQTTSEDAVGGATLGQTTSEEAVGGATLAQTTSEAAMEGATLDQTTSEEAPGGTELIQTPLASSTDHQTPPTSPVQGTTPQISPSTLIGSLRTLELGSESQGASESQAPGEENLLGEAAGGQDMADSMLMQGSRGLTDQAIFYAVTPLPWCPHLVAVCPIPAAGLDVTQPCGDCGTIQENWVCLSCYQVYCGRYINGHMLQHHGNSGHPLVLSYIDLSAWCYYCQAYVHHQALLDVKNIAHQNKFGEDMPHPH
The assay is described as follows: Inhibition of recombinant human HDAC6 using Ac-Val-Gly-(NAc)Lys-AMC as substrate incubated for 30 mins by fluorescence based assay.

Another assay relates to MCF7. The experiment in a line: Antiproliferative activity against human MCF7 cells expressing ER assessed as inhibition of cell viability at high concentration incubated for 12 days with every 3 day treatment by Alamar blue staining based assay relative to control. Format: functional. The settings on record: time 12 day.

Histone deacetylase 1, sequence (Q13547 whole entry): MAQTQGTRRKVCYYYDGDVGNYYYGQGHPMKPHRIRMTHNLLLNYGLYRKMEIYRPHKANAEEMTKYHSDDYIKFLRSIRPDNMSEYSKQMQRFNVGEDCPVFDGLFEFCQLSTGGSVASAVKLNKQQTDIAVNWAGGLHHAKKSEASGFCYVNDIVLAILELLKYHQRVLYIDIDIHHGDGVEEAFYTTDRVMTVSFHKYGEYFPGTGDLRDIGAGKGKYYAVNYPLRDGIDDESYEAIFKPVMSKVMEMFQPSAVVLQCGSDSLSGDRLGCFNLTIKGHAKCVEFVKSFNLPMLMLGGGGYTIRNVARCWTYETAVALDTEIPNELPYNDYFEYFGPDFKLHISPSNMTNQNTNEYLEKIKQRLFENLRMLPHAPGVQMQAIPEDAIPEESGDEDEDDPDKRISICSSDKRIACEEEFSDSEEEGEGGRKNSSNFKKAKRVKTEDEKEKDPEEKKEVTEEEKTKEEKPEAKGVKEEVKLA

`O=C(CCCCOc1ccc(-c2sc3cc(O)ccc3c2C(=O)c2ccc(OCCN3CCCCC3)cc2)cc1)NO`: the concentration for half-maximal inhibition (IC50) amounted to 389 nM at Histone deacetylase 1 and 123 nM in assay [1].

As to `O=C(CCCCCc1ccc(-c2sc3cc(O)ccc3c2C(=O)c2ccc(OCCN3CCCCC3)cc2)cc1)NO`, the IC50 came out at 12 nM on Histone deacetylase 1 and 297 nM in assay [1].

Turning to `O=C(CCc1ccc(-c2sc3cc(O)ccc3c2C(=O)c2ccc(OCCN3CCCCC3)cc2)cc1)NO`, in the assay on MCF7, the “inhibition (INH)” value is given as 100%. The values for the IC50 (at Histone deacetylase 1; in assay [1]) were 464 nM and 202 nM, respectively.

For the compound `O=C(CCCCc1ccc(-c2sc3cc(O)ccc3c2C(=O)c2ccc(OCCN3CCCCC3)cc2)cc1)NO`, the IC50 turned out to be 257 nM at Histone deacetylase 1 and 221 nM in assay [1].

`O=C(CCCCCCc1ccc(-c2sc3cc(O)ccc3c2C(=O)c2ccc(OCCN3CCCCC3)cc2)cc1)NO`: the IC50 on Histone deacetylase 1 is 344 nM; in assay [1] it was 333 nM.

For the compound `O=C(CCCCCOc1ccc(-c2sc3cc(O)ccc3c2C(=O)c2ccc(OCCN3CCCCC3)cc2)cc1)NO`, the IC50 on Histone deacetylase 1 came out at 132 nM; in assay [1], 21 nM.

Turning to `O=C(CCCOc1ccc(-c2sc3cc(O)ccc3c2C(=O)c2ccc(OCCN3CCCCC3)cc2)cc1)NO`, the “inhibition (INH)” value in the assay with MCF7 was found to be 100%. For the same compound, the IC50 stood at 5990 nM on Histone deacetylase 1 and 91 nM in assay [1].
